Data from ChEMBL document CHEMBL4196115 (ACS Med Chem Lett, 2018).
Changes are numbered by the printed parent chain. Calls of active or inactive are those of the source. The calls are words filed in the database; no cut-off is given here.

Assays:
[1] = molecular target: T1, Muscarinic acetylcholine receptor M4 (Homo sapiens) (UniProt P08173); test: Agonist activity at human muscarinic acetylcholine receptor M4 expressed in CHO cells; assay type: functional, cell-based
T1 sequence (whole entry): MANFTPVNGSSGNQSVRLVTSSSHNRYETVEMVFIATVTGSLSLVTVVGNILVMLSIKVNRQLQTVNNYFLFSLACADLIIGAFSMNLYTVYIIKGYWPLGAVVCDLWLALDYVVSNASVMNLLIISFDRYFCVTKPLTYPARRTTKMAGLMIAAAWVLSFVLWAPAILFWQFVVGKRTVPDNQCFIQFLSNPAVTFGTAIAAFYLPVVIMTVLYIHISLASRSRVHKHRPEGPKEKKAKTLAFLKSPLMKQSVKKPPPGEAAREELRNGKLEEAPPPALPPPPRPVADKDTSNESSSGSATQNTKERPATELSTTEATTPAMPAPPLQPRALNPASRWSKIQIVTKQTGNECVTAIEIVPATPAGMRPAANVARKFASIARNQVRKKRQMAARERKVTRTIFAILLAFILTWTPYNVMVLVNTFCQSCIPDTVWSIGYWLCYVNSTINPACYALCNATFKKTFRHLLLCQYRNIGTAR

[2] = molecular target: T2, Muscarinic acetylcholine receptor (Canis lupus familiaris) (UniProt A0A8C0MJA7); conditions: CHO
T2 sequence (whole entry): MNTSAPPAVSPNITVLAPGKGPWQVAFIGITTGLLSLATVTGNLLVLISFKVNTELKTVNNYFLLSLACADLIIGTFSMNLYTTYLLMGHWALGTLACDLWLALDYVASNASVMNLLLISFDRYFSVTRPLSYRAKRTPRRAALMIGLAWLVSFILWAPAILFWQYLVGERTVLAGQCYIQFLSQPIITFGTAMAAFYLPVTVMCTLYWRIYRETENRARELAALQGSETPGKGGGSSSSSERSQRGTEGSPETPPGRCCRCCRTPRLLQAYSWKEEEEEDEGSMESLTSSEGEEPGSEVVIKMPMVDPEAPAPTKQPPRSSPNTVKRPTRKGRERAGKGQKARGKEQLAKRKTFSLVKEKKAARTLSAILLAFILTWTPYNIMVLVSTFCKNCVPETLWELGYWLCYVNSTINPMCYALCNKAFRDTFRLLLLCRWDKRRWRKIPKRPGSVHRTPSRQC
Description: Positive allosteric modulation of dog muscarinic acetylcholine receptor M1 expressed in CHO cells assessed as increase in acetylcholine-induced calcium mobilization pretreated for 4 mins followed by acetylcholine addition and measured after 4 mins by Fluo-4-AM dye based FLIPR assay

[3] = molecular target: T3, Muscarinic acetylcholine receptor M2 (Homo sapiens) (UniProt P08172); test: Positive allosteric modulation of human muscarinic acetylcholine receptor M2 expressed in CHO cells; assay type: functional, cell-based
T3 sequence (whole entry): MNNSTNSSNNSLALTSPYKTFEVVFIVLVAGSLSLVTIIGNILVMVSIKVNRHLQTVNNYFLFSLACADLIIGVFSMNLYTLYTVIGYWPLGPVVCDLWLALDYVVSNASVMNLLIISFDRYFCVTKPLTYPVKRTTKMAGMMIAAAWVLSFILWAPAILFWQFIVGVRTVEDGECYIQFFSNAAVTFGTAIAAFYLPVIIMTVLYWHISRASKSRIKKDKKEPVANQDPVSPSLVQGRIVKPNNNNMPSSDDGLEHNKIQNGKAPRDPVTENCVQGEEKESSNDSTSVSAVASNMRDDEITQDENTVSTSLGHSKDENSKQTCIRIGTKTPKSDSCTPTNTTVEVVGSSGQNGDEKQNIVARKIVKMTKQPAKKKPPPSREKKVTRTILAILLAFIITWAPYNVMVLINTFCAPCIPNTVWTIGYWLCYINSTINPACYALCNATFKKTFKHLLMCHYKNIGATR

[4] = molecular target: T4, Muscarinic acetylcholine receptor M1 (Macaca mulatta) (UniProt P56489); conditions: CHO
T4 sequence (whole entry): T2 sequence (whole entry) with I155V, R246P, T248A, T265P, E277D, P312Q, R331K, E335D, A343P, N393D
Description: Positive allosteric modulation of rhesus monkey muscarinic acetylcholine receptor M1 expressed in CHO cells assessed as increase in acetylcholine-induced calcium mobilization pretreated for 4 mins followed by acetylcholine addition and measured after 4 mins by Fluo-4-AM dye based FLIPR assay

[5] = molecular target: Muscarinic acetylcholine receptor M3 (Homo sapiens) (UniProt P20309); test: Positive allosteric modulation of human muscarinic acetylcholine receptor M3 expressed in CHO cells; assay type: functional, cell-based
[6] = molecular target: T5, Muscarinic acetylcholine receptor M1 (Homo sapiens) (UniProt P11229); test: Positive allosteric modulation of human muscarinic acetylcholine receptor M1 expressed in CHO cells assessed as increase in acetylcholine-induced calcium mobilization pretreated for 4 mins followed by acetylcholine addition and measured after 4 mins by Fluo-4-AM dye based FLIPR assay; assay type: functional, cell-based
T5 sequence (whole entry): T2 sequence (whole entry) with I155V, R246P, T248A, T265A, P312Q, R331K, E335D, A343P, N393D

Sequence of Muscarinic acetylcholine receptor M3 (Homo sapiens) (P20309 whole entry, looked up): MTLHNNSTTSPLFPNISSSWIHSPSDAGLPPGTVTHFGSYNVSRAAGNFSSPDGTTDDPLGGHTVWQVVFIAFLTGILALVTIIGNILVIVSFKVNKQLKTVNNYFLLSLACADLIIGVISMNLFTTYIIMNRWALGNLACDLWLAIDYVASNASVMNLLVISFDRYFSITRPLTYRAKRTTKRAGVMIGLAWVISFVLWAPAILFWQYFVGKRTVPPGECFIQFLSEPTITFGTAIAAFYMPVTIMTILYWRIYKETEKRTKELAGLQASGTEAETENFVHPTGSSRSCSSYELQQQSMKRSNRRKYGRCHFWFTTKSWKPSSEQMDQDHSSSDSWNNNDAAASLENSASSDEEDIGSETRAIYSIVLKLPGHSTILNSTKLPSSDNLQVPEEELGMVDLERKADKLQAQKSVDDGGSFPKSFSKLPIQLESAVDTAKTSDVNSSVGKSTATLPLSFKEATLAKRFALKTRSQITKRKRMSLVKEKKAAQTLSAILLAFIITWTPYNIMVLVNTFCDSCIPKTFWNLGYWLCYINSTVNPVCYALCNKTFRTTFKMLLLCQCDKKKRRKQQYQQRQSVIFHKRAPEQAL

With `Cc1ccc(Cc2cc3c(=O)n([C@H]4CCCC[C@@H]4O)cnc3c3ccccc23)cn1` as the compound, how does the Activity [1] read?
Its Activity is “inactive”.

What about the IP [2] of the same compound?
Its IP is 1.4 nM.

And the Activity [3]?
Its Activity is “inactive”.

And the IP [4]?
The IP was 3.8 nM.

And the Activity [5]?
The Activity was “inactive”.

And the IP [6]?
Its IP is 19 nM.
